Laboratory results taken from patent publication US8362000B2, “Azetidinyl diamides as monoacylglycerol lipase inhibitors” (Janssen Pharmaceutica NV, priority 2009, dated 2013).
Where a chain is given by its changes, count along the chain named. Read-outs that look alike come from different tables or passages of the source.

Key:
[1] = target: T1, mutant MGL (Homo sapiens, UniProt Q99685, L169S/L176S); experiment: MGL ThermoFluor assay - mutant; type: binding
T1 sequence (Q99685 1-303 L169S/L176S): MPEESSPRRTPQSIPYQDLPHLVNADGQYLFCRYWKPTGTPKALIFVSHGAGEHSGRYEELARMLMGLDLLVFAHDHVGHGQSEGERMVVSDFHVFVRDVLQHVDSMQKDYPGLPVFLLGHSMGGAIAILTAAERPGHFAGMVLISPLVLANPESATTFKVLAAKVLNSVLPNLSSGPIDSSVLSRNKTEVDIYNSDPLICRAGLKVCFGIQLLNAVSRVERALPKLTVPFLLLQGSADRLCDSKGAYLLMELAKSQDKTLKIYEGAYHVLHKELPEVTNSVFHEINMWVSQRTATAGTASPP

[2] = target: T2, purified wild type MGL (wt-MGLL 6H-11-313) (Homo sapiens, UniProt Q99685)
T2 sequence (Q99685 1-303): T1 sequence (Q99685 1-303 L169S/L176S) with S169L, S176L

[3] = ThermoFluor concentration-response, read-out: MGL mutant ThermoFluor Kd
[4] = ThermoFluor thermal stability binding assay, read-out: MGL mutant ThermoFluor Kd
[5] = ThermoFluor, compound concentration measured by qNMR, read-out: MGL mutant ThermoFluor qKd (μM) (using qNMR conc.)

Row | SMILES | Kd [1, 3] [µM] | IC50 [2] [nM] | Kd [1, 4] [µM] | Kd [1, 5] [µM]
1 | Cc1nc2cc(C(=O)N3CC(N4CCN(C(=O)c5ccccc5)CC4)C3)ccc2n1C1CCCCC1 [Cpd 37, 1-Cyclohexyl-2-methyl-5-({3-[4-(phenylcarbonyl)piperazin-1-yl]azetidin-1-yl}carbonyl)-1H-benzimidazole] | 0.1 | 5990 |  | 
2 | CC1CN(C(=O)c2nccs2)CCN1C1CN(C(=O)c2ccc(Cc3ccccc3)cc2)C1 (centres unmarked) [Cpd 47, 1-{1-[(4-Benzylphenyl)carbonyl]azetidin-3-yl}-2-methyl-4-(1,3-thiazol-2-ylcarbonyl)piperazine] | 0.0909 | 129 |  | 
3 | O=C(c1ccc(-c2ccc(C(F)(F)F)cc2)cc1)N1CC(N2CCN(C(=O)c3nccs3)CC2)C1 [Cpd 150, 1-(1,3-Thiazol-2-ylcarbonyl)-4-(1-{[4′-(trifluoromethyl)biphenyl-4-yl]carbonyl}azetidin-3-yl)piperazine] | 0.0033 | < 5 |  | 
4 | O=C(c1ccc(-c2cccc(C(F)(F)F)c2)cc1)N1CC(N2CCN(C(=O)c3nccs3)CC2)C1 [Cpd 237, 1-(1,3-Thiazol-2-ylcarbonyl)-4-(1-{[3′-(trifluoromethyl)biphenyl-4-yl]carbonyl}azetidin-3-yl)piperazine] |  | < 5 | 0.001 | 
5 | O=C(c1ccccc1)N1CCN(C2CN(C(=O)c3ccc(-c4cccc(C(F)(F)F)c4)cc3Cl)C2)CC1 [Cpd 252, 1-(1-{[3-Chloro-3′-(trifluoromethyl)biphenyl-4-yl]carbonyl}azetidin-3-yl)-4-(phenylcarbonyl)piperazine] |  | 80.8 | 0.05 | 
6 | Cc1ccc2c(C(F)(F)F)c(C(=O)N3CC(N4CCN(C(=O)c5ccccc5)CC4)C3)sc2c1 [Cpd 510, 1-(1-{[6-Methyl-3-(trifluoromethyl)-1-benzothiophen-2-yl]carbonyl}azetidin-3-yl)-4-(phenylcarbonyl)piperazine] | 0.068 | 181 |  | 
7 | CC(C)=Cc1c(C(=O)N2CC(N3CCN(C(=O)c4ccccc4)CC3)C2)sc2cc(C(F)(F)F)ccc12 [Cpd 511] |  | 240 | 0.002 | 
8 | O=C(c1ccccc1)N1CCN(C2CN(C(=O)c3sc4cc(Cl)ccc4c3C(F)(F)F)C2)CC1 [Cpd 512] | 0.05 | 260 |  | 
9 | O=C(c1ccccc1)N1CCN(C2CN(C(=O)c3sc4cc(F)ccc4c3C3CCC3)C2)CC1 [Cpd 513] | 0.009 | 371 |  | 
10 | O=C(c1ccccc1)N1CCN(C2CN(C(=O)c3ccc(Oc4cccc(C(F)(F)F)c4)nc3)C2)CC1 [Cpd 514] | 0.727 | 454 |  | 
11 | O=C(c1ccccc1)N1CCN(C2CN(C(=O)c3sc4cc(C(F)(F)F)ccc4c3C3CC3)C2)CC1 [Cpd 515] |  | 455 | 0.011 | 
12 | Cc1c(C(=O)N2CC(N3CCN(C(=O)c4ccccc4)CC3)C2)sc2cc(F)ccc12 [Cpd 516] |  | 465 | 0.04 | 
13 | O=C(c1ccccc1)N1CC(N2CCN(C(=O)c3cc4cc(C(F)(F)F)ccc4s3)C(c3ccccc3)C2)C1 (centres unmarked) [Cpd 517] | 0.05 | 1340 |  | 
14 | O=C(c1ccccc1)N1CCN(C2CN(C(=O)c3ccc(Oc4cccc(Cl)c4)nc3)C2)CC1 [Cpd 519, 1-(1-{[6-(3-Chlorophenoxy)pyridin-3-yl]carbonyl}azetidin-3-yl)-4-(phenylcarbonyl)piperazine] | 0.962 | 1620 |  | 
15 | O=C(c1ccccc1)N1CCN(C2CN(C(=O)c3ccc(Oc4ccc(Cl)cn4)cc3)C2)CC1 [Cpd 520] | 2 | 2030 |  | 
16 | Cc1nc2cc(C(=O)N3CCN(C4CN(C(=O)c5ccccc5)C4)CC3)ccc2n1C1CCCCC1 [Cpd 523] | 0.686 | 3130 |  | 
17 | O=C(c1ccccc1)N1CCN(C2CN(C(=O)c3ccc(Oc4ccccn4)c(Cl)c3)C2)CC1 [Cpd 525] | 2.5 | 6990 |  | 
18 | COc1cccc2c(C)c(C(=O)N3CC(N4CCN(C(=O)c5ccccc5)CC4)C3)[nH]c12 [Cpd 526] | 4.98 | 8100 |  | 

Row | SMILES | Kd [1, 3] [µM] | IC50 [2] [nM] | Kd [1, 4] [µM] | Kd [1, 5] [µM]
19 | O=C(c1ccccc1)N1CCN(C2CN(C(=O)c3ccc(Oc4cccnc4)cc3)C2)CC1 [Cpd 527] | 10 | 8570 |  | 
20 | O=C(c1ccccc1)N1CCN(C2CN(C(=O)c3ccc(F)c(Cc4ccc(C(F)(F)F)cc4)c3)C2)CC1 [Cpd 563] | 2.11 | 2490 |  | 
21 | O=C(c1ccccc1)N1CCN(C2CN(C(=O)c3ccc(CS(=O)(=O)c4cccc(C(F)(F)F)c4)cc3)C2)CC1 [Cpd 564] | 10 | 5400 |  | 
22 | Cc1cc(-n2ccc3cc(C(=O)N4CC(N5CCN(C(=O)c6ccccc6)CC5)C4)ccc32)ccc1C#N [Cpd 566, 2-Methyl-4-[5-({3-[4-(phenylcarbonyl)piperazin-1-yl]azetidin-1-yl}carbonyl)-1H-indol-1-yl]benzonitrile] |  | 14 |  | 0.031
23 | O=C(c1ccccc1)N1CCN(C2CN(C(=O)c3ccc4c(ccn4-c4ccc(Cl)c(F)c4)c3)C2)CC1 [Cpd 568] |  | 72 |  | 0.099
24 | O=C(c1ccccc1)N1CCN(C2CN(C(=O)c3ccc4c(cnn4-c4ccc(C(F)(F)F)cc4)c3)C2)CC1 [Cpd 575, 5-({3-[4-(Phenylcarbonyl)piperazin-1-yl]azetidin-1-yl}carbonyl)-1-[4-(trifluoromethyl)phenyl]-1H-indazole] |  | 51 |  | 0.083
25 | O=C(c1ccccc1)N1CCN(C2CN(C(=O)c3ccc4c(cnn4-c4cccc(OC(F)(F)F)c4)c3)C2)CC1 [Cpd 576, 5-({3-[4-(Phenylcarbonyl)piperazin-1-yl]azetidin-1-yl}carbonyl)-1-[3-(trifluoromethoxy)phenyl]-1H-indazole] |  | 51 |  | 0.088
26 | O=C(c1ccccc1)N1CCN(C2CN(C(=O)c3ccc4c(ccn4-c4cc(F)ccc4F)c3)C2)CC1 [Cpd 578] |  | 63 |  | 0.195
27 | Cc1cn(-c2cccc(F)c2)c2ccc(C(=O)N3CC(N4CCN(C(=O)c5ccccc5)CC4)C3)cc12 [Cpd 583] |  | 104 |  | 0.051
28 | Cc1nn(-c2ccc(F)cc2)c(C)c1C(=O)N1CC(N2CCN(C(=O)c3nccs3)CC2)C1 [Cpd 1301] |  | 4610 |  | 
29 | Cn1cc(-c2ccc(F)cc2)c2ccc(C(=O)N3CC(N4CCN(C(=O)c5nccs5)CC4)C3)cc21 [Cpd 1318, 3-(4-Fluorophenyl)-1-methyl-6-({3-[4-(1,3-thiazol-2-ylcarbonyl)piperazin-1-yl]azetidin-1-yl}carbonyl)-1H-indole] |  | < 5 |  | 
30 | Cc1c(-c2ccccc2)oc2c(C(=O)N3CCN(C4CN(C(=O)c5cscn5)C4)CC3c3ccccc3)cccc2c1=O (centres unmarked) [Cpd 1436] |  | > 16700 |  | 
31 | O=C(c1cscn1)N1CCN(C2CN(C(=O)c3nc4ccc(F)cc4[nH]3)C2)CC1 [Cpd 1442] |  | > 16700 |  | 
32 | Cc1c(-c2ccccc2)oc2c(C(=O)N3CCN(C4CN(C(=O)c5ccccc5)C4)CC3c3ccccc3)cccc2c1=O (centres unmarked) [Cpd 1489] |  | > 16700 |  | 
33 | O=C(c1ccc(S(=O)(=O)c2cccc(C(F)(F)F)c2)cc1)N1CC(N2CCN(C(=O)C(F)(F)F)CC2)C1 [Cpd 1493] |  | > 16700 |  | 
34 | O=C(c1ccc(CS(=O)(=O)c2cccc(C(F)(F)F)c2)cc1)N1CC(N2CCN(C(=O)C(F)(F)F)CC2)C1 [Cpd 1498] |  | > 16700 |  | 
35 | Cc1nc2cc(C(=O)N3CC(N4CCN(C(=O)c5cscn5)CC4)C3)ccc2n1C1CCC(F)(F)CC1 [Cpd 1506] |  | > 16700 |  | 
